From patent US9078444B2, “Isothiazoline derivatives as insecticidal compounds” (Syngenta Participations AG, priority 2011, dated 2015)

Columns and labels:
Format in all cases: in vivo
Tetranychus urticae = Tetranychus urticae (two-spotted spider mite) bean leaf disc test; conditions: foliar, 192 h, 200 ppm sprayed on bean leaf discs, mixed ages, egg, larval and adult mortality 8 days later
From the text: Tetranychus urticae (Two-Spotted Spider Mite): Bean leaf discs on agar in 24-well microtiter plates were sprayed with test solutions at an application rate of 200 ppm. After drying, the leaf discs are infested with mite populations of mixed ages. 8 days later, discs are checked for egg mortality, larval mortality, and adult mortality.

Thrips tabaci = Thrips tabaci (onion thrips) sunflower leaf disc test; conditions: foliar, 168 h, 200 ppm sprayed on sunflower leaf discs, mixed ages, mortality after 7 days
Protocol: Thrips tabaci (Onion Thrips): Sunflower leaf discs were placed on agar in a 24-well microtiter plate and sprayed with test solutions at an application rate of 200 ppm. After drying, the leaf discs were infested with a thrips population of mixed ages. After an incubation period of 7 days, samples were checked for mortality.

Spodoptera littoralis = Spodoptera littoralis (Egyptian cotton leafworm) cotton leaf disc test; conditions: foliar, 72 h, 200 ppm sprayed on cotton leaf discs, mortality, feeding behavior, growth regulation 3 days after treatment
Protocol: Spodoptera littoralis (Egyptian Cotton Leafworm): Cotton leaf discs were placed on agar in a 24-well microtiter plate and sprayed with test solutions at an application rate of 200 ppm. After drying, the leaf discs were infested with […]. The samples were checked for mortality, feeding behavior, and growth regulation 3 days after treatment (DAT).

Diabrotica balteata = Diabrotica balteata (corn root worm) artificial diet test; conditions: 120 h, 200 ppm (concentration in well 18 ppm), L2 larvae, larval mortality and growth regulation after 5 days
Protocol: Diabrotica balteata (Corn Root Worm): A 24-well microtiter plate (MTP) with artificial diet was treated with test solutions at an application rate of 200 ppm (concentration in well 18 ppm) by pipetting. After drying, the MTPs were infested with L2 larvae (6-10 per well). After an incubation period of 5 days, samples were checked for larval mortality and growth regulation.

Plutella xylostella = Plutella xylostella (diamond back moth) artificial diet test; conditions: 144 h, 200 ppm (concentration in well 18 ppm), L2 larvae, larval mortality and growth regulation after 6 days
Protocol: Plutella xylostella (Diamond Back Moth): 24-well microtiter plate (MTP) with artificial diet was treated with test solutions at an application rate of 200 ppm (concentration in well 18 ppm) by pipetting. After drying, the MTPs were infested with L2 larvae (7-12 per well). After an incubation period of 6 days, samples were checked for larval mortality and growth regulation.

Heliothis virescens = Heliothis virescens (tobacco budworm) egg test on artificial diet; conditions: 96 h, 200 ppm (concentration in well 18 ppm), eggs on artificial diet, egg mortality, larval mortality, growth regulation after 4 days
Protocol: Heliothis virescens (Tobacco Budworm): Eggs (0-24 h old) were placed in 24-well microtiter plate on artificial diet and treated with test solutions at an application rate of 200 ppm (concentration in well 18 ppm) by pipetting. After an incubation period of 4 days, samples were checked for egg mortality, larval mortality, and growth regulation.

Measured: pest or weed control at 200 ppm

Cc1cc(C2=NSC(c3cc(Cl)cc(Cl)c3)(C(F)(F)F)C2)ccc1C(=O)NCC(F)(F)F (stereo not shown) [Compound A03]
≥ 80%: Tetranychus urticae | Thrips tabaci | Spodoptera littoralis | Diabrotica balteata | Plutella xylostella | Heliothis virescens

CCNC(=O)c1ccc(C2=NSC(c3cc(Cl)cc(Cl)c3)(C(F)(F)F)C2)cc1C (stereo not shown) [Compound A04]
≥ 80%: Tetranychus urticae | Thrips tabaci | Spodoptera littoralis | Diabrotica balteata | Plutella xylostella | Heliothis virescens

CCCCNC(=O)c1ccc(C2=NSC(c3cc(Cl)cc(Cl)c3)(C(F)(F)F)C2)cc1C (stereo not shown) [Compound A05]
≥ 80%: Tetranychus urticae | Thrips tabaci | Spodoptera littoralis | Diabrotica balteata | Plutella xylostella | Heliothis virescens

COCC(C)NC(=O)c1ccc(C2=NSC(c3cc(Cl)cc(Cl)c3)(C(F)(F)F)C2)cc1C (stereo not shown) [Compound A06]
≥ 80%: Tetranychus urticae | Thrips tabaci | Spodoptera littoralis | Diabrotica balteata | Plutella xylostella | Heliothis virescens

Cc1cc(C2=NSC(c3cc(Cl)cc(Cl)c3)(C(F)(F)F)C2)ccc1C(=O)NCCC(F)(F)F (stereo not shown) [Compound A07]
≥ 80%: Tetranychus urticae | Thrips tabaci | Spodoptera littoralis | Diabrotica balteata | Plutella xylostella | Heliothis virescens

CCC(C)NC(=O)c1ccc(C2=NSC(c3cc(Cl)cc(Cl)c3)(C(F)(F)F)C2)cc1C (stereo not shown) [Compound A08]
≥ 80%: Tetranychus urticae | Thrips tabaci | Spodoptera littoralis | Diabrotica balteata | Plutella xylostella | Heliothis virescens

Cc1cc(C2=NSC(c3cc(Cl)cc(Cl)c3)(C(F)(F)F)C2)ccc1C(=O)NCC1CCCO1 (stereo not shown) [Compound A09]
≥ 80%: Tetranychus urticae | Thrips tabaci | Spodoptera littoralis | Diabrotica balteata | Plutella xylostella | Heliothis virescens

Cc1cc(C2=NSC(c3cc(Cl)cc(Cl)c3)(C(F)(F)F)C2)ccc1C(=O)NCc1ccccc1 (stereo not shown) [Compound A10]
≥ 80%: Tetranychus urticae | Thrips tabaci | Spodoptera littoralis | Diabrotica balteata | Plutella xylostella | Heliothis virescens

Cc1cc(C2=NSC(c3cc(Cl)cc(Cl)c3)(C(F)(F)F)C2)ccc1C(=O)NCc1ccccc1F (stereo not shown) [Compound A11]
≥ 80%: Tetranychus urticae | Thrips tabaci | Spodoptera littoralis | Diabrotica balteata | Plutella xylostella | Heliothis virescens

COc1ccc(CNC(=O)c2ccc(C3=NSC(c4cc(Cl)cc(Cl)c4)(C(F)(F)F)C3)cc2C)cc1 (stereo not shown) [Compound A13]
≥ 80%: Tetranychus urticae | Thrips tabaci | Spodoptera littoralis | Diabrotica balteata | Plutella xylostella | Heliothis virescens

Cc1cc(C2=NSC(c3cc(Cl)cc(Cl)c3)(C(F)(F)F)C2)ccc1C(=O)NCc1ccc(Cl)nc1 (stereo not shown) [Compound A14]
≥ 80%: Tetranychus urticae | Thrips tabaci | Spodoptera littoralis | Diabrotica balteata | Plutella xylostella | Heliothis virescens

Cc1cc(C2=NSC(c3cc(Cl)cc(Cl)c3)(C(F)(F)F)C2)ccc1C(=O)Nc1cccc(F)c1 (stereo not shown) [Compound A15]
≥ 80%: Tetranychus urticae | Thrips tabaci | Spodoptera littoralis | Diabrotica balteata | Plutella xylostella | Heliothis virescens

CSCC(C)(C)NC(=O)c1ccc(C2=NSC(c3cc(Cl)cc(Cl)c3)(C(F)(F)F)C2)cc1C (stereo not shown) [Compound A20]
≥ 80%: Tetranychus urticae | Spodoptera littoralis | Diabrotica balteata | Plutella xylostella | Heliothis virescens

Cc1cc(C2=NSC(c3cc(Cl)cc(Cl)c3)(C(F)(F)F)C2)ccc1C(=O)NC1CCSC1=O (stereo not shown) [Compound A37]
≥ 80%: Tetranychus urticae | Spodoptera littoralis | Diabrotica balteata | Plutella xylostella | Heliothis virescens

Cc1cc(C2=NSC(c3cc(Cl)cc(Cl)c3)(C(F)(F)F)C2)ccc1C(=O)Nc1cc[n+]([O-])cc1 (stereo not shown) [Compound A41]
≥ 80%: Spodoptera littoralis | Plutella xylostella | Heliothis virescens

Cc1cc(C2=NSC(c3cc(Cl)cc(Cl)c3)(C(F)(F)F)C2)ccc1C(=O)NC1=NCCS1 (stereo not shown) [Compound A44]
≥ 80%: Spodoptera littoralis | Diabrotica balteata | Plutella xylostella | Heliothis virescens

Cc1cc(C)nc(NC(=O)c2ccc(C3=NSC(c4cc(Cl)cc(Cl)c4)(C(F)(F)F)C3)cc2C)n1 (stereo not shown) [Compound A47]
≥ 80%: Spodoptera littoralis

CCN(CC)C(=O)c1cccc(NC(=O)c2ccc(C3=NSC(c4cc(Cl)cc(Cl)c4)(C(F)(F)F)C3)cc2C)n1 (stereo not shown) [Compound A49]
≥ 80%: Tetranychus urticae | Spodoptera littoralis | Diabrotica balteata | Plutella xylostella | Heliothis virescens

Cc1cc(C2=NSC(c3cc(Cl)cc(Cl)c3)(C(F)(F)F)C2)ccc1C(=O)Nc1ccccn1 (stereo not shown) [Compound A56]
≥ 80%: Thrips tabaci | Spodoptera littoralis | Diabrotica balteata | Plutella xylostella | Heliothis virescens

Cc1cc(C2=NSC(c3cc(Cl)cc(Cl)c3)(C(F)(F)F)C2)ccc1C(=O)NCc1ccc(C(F)(F)F)cc1 (stereo not shown) [Compound A57]
≥ 80%: Tetranychus urticae | Spodoptera littoralis | Diabrotica balteata | Plutella xylostella | Heliothis virescens

Cc1cc(C2=NSC(c3cc(Cl)cc(Cl)c3)(C(F)(F)F)C2)ccc1C(=O)Nc1ccc(C(F)(F)F)cc1 (stereo not shown) [Compound A58]
≥ 80%: Thrips tabaci | Spodoptera littoralis | Diabrotica balteata | Plutella xylostella | Heliothis virescens

Cc1ccc(NC(=O)c2ccc(C3=NSC(c4cc(Cl)cc(Cl)c4)(C(F)(F)F)C3)cc2C)cc1 (stereo not shown) [Compound A64]
≥ 80%: Thrips tabaci | Spodoptera littoralis | Diabrotica balteata | Plutella xylostella | Heliothis virescens
